{"source": "patent US20220152228A1", "about": "“COMPOSITIONS AND METHODS FOR RADIOTHERAPY USING CHELATED RADIOTHERAPEUTIC AGENTS AND NON-TARGET TISSUE BLOCKADE” (Washington University, priority 2019, published 2022)", "remark": "listed apart in the source", "key": {"[1]": {"system": "^223Ra transport through caco-2 monolayers", "assay": "Ion-channel ligand library screen for 223Ra flux through caco-2 monolayers", "format": "cell-based", "details": "20 μM, BL to AP, normalized to treatment-free flux", "procedure": "Caco-2BBe1 (brush border expressing clone of parent Caco-2 line) monolayers, modelling colon tissue, were used. Caco-2 monolayers were utilized for ion-channel ligand library screening (52 compounds) testing epithelial ion-transport activation or blocking of radioactive transfer (see e.g., FIG. 15A). Caco-2 cells were seeded 15 K cells/well in 96 trans-well filter plate and assayed 10 days post-seeding. […] The screening material was sampled at 20 μM per BL well (n=3/molecules).\nThe monolayers integrity was monitored using a lucifer yellow permeability assay. The fluorescent tracer was loaded in the AP compartment, and fluorescence permeability was read in the BL vial. % Lucifer Yellow Passage (LYp %) was calculated as the percentile ratio of relative Fluorescence Units-535 nm (FU) of the assayed BL over FU of complete transfer in BL well.\nRadioactive reading was accomplished sampling AP compartments on Luma plates and reading the dried luminescence using Topcount scintillation counter. […] Averaged drug-assayed measurements (n=3) were normalized to treatment-free flux."}, "[2]": {"assay": "223Ra organ distribution in mice pre-treated with ion-channel modulator", "format": "in vivo, C57/Bl6 mice", "procedure": "Healthy male C57/Bl6 mice were randomized received a combination treatment with intraperitoneal injection of Amiloride (inhibitor, red) or NS-1619 (activator, green) or saline (control, grey) followed by a clinical dose of ^223RaCl2 1 h post-drug administration. Radioactive organ distribution was then measured at 15 min, 1 h and 4 h post ^223Ra treatment. […] Comparing bone uptake, as early as 15 min, osseous absorption is was half for the NS-1619-treated group as compared to the amiloride or the control group.\nMale C57Bl/6 aged 10 weeks (n=6 per treated group) were administered intraperitoneally Amiloride (12.5 mg/kg-150 uL 2% v/v DMSO) or NS-1619 (1 mg/kg-150 uL 2% v/v DMSO) or saline 1 h prior ^223RaCl2 i.v. administration (3.7 KBq/100 uL buffer). Animals were kept awake between each injection. 15 min; 1 h and 4 h post ^223Ra administration: blood; spleen; kidney; stomach; duodenum; jejunum; ileum; cecum; colon; muscle; fat and bone tibia were harvested, weighed and gamma counted. Gamma counting was conducting utilizing a Perkin Elmer Wizard2 counter with readings of energies set 150-350 KeV, with 10 min reading for each sample. Standard corresponding to 10% of injected activity were measured as well; allowing for the calculation of % Injected activity (% IA) normalized to tissue weight (% IA/g)."}, "[3]": {"procedure": "The animals were maintained for 20 days with food and water and submitted to blood chemistry analysis (Abaxis Vscan 2) at day 1; 7 and 19 d post-treatment. Weight was monitored for each cohort over 20 days. At the end of the study (day 20 post-treatment), animals were sacrificed and whole limbs and kidneys were harvested for gamma counting and histopathological assessments, respectively.\nKidneys were collected 20 days post-treatment and the tissues were fixed in formalin for 72 h then transferred to saline. Tissues were processed by dehydration, paraffin embedding, and sectioning at 4 μm. Adjacent sections were stained with H&E, PAS and Masson's trichrome."}, "[4]": {"system": "human duodenal enteroid monolayers", "procedure": "An in vitro patient-derived organoid model of functional gut epithelium was developed by plating human duodenal enteroid monolayers on a permeable trans-well scaffold.\nIntestinal cellular models—human duodenal enteroids and caco-2 monolayers—were grown on a trans-well polymeric filter plate divided in a lower and an upper incubation compartments modeling basolateral and apical side of the epithelium, respectively.\nHuman duodenal enteroids (see e.g., FIG. 13A) were reconstituted and grown from healthy patient-derived cellular crypts tissue samples. Both differentiated (DF) and undifferentiated (UDF) conditions were tested. DF monolayers were induced by removal of Wnt3A and R-spondin factors from the incubation media, as described previously.\nDF or UDF duodenal enteroids were set and grown on 24-transwell plates for 2 weeks until cell confluency was reached, leading to closed monolayer membranes. […] Temperature-dependent transport 37° C. versus 4° C. was tested on UDF enteroids (see e.g., FIG. 13B). DF versus UDF enteroids phenotypes transfer were compared, selecting monolayers with similar range of TEER (1200<TEER<1800 D/m) (see e.g., FIG. 13C)."}, "human serum proteins": {"system": "human serum proteins", "details": "for activity in early protein fractions (5-15 mL), affinity with proteins: 2 h of incubation in serum proteins", "protocol": "Next, the stability of the complex to serum proteins was determined in vitro, simulating the complex biological environment encountered in vivo.\nAlternatively, size exclusion chromatography (SEC) was utilized to identify each species in solution. […] Chelated activity % was measured integrating gamma counts of macropa peak (20 mL) over the sum counts of all collected fractions (0-47 mL) (see e.g., FIG. 3E)."}, "[5]": {"details": "after administration to mice", "protocol": "The whole gastrointestinal tracts from stomach to rectum were rapidly harvested and placed directly on plastic wraps set over autoradiographic phosphor screens for 90 min exposure in the dark. The autoradiographic prints were read on Cyclone Phosphor Imager (Packard), 300 DPI confocal laser stimulation; 16-bit ADC; utilizing FIJI processing with median filter. For FIJI readings of the autoradiographic files, data were converted to 32-bit format utilizing “square and scale n16” plug in. Radioactive signal intensity was translated into dynamic light units (see e.g., FIG. 12A). Signal intensity was plotted over the GI tract length from the stomach (start=0) to the cecum (˜200 mm) comparing various time points (see e.g., FIG. 12B). Results were comprised as well into profiles curves per organ region of interests including: stomach, cecum or the whole intestinal tract (see e.g., FIG. 12C)."}, "colon and duodenum": {"system": "colon and duodenum", "details": "mice, uptake in the intestine", "protocol": "Animals were fasted and supplemented with Golytely (24 g/350 mL) 2 h prior injections and sacrificed 24 h post administration. Sections (1 cm) of each gastrointestinal region from the duodenum, jejunum, ileum to the colon were rapidly harvested. GI specimen were set onto previously partially solidified OCT gel block, then fully coated with OCT and flash frozen. Gastrointestinal transversal sectioning was conducted utilizing Leica microtome, 10 μm sections. Fresh frozen sections were collected on tape and stored at −20° C.\nGastrointestinal tissue sections were fixed immerging tapes in 10% paraformaldehyde (PFA) for 15 min followed by a washing with PBS 1×. Following fixation, tissues were mounted directly with DAPI and/or TRITC-Phalloidin mounting media under cover slip ready for imaging.\nA second fixations was proceeded using 10% PFA and washed with deionized water. Tissues were then reacted using buffer reaction mixtures from Click-iT Plus TUNEL assay. Positive control were conducted, treated similarly with an additional DNAase treatment. Final counterstaining was conducted using Hoechst33342 (1:5000) before mounting taped tissue specimen under cover slip with 30% aqueous glycerol.\nFor γH2AX staining, tissues were fixed and submitted to blocking serum reagent, 1 h at room temperature. […]"}, "[6]": {"system": "metastatic castration-resistant prostate cancer", "details": "mCRPC patients, vs. 11.9 months in control patients; cited from earlier work"}, "[7]": {"details": "aqueous solution, physiological pH, Ba2+ complex; cited from earlier work"}, "[8]": {"details": "human serum proteins, 37° C., 12 days"}}, "note": "Like-named read-outs stand apart in the source and are kept apart here.", "data": [{"smiles": "O=c1[nH]c2cc(C(F)(F)F)ccc2n1-c1cc(C(F)(F)F)ccc1O", "note": "[NS-1619]", "values": [{"measurement": "effect on 223Ra transport through monolayers", "setting": "[1]", "result": "activator"}, {"measurement": "upper GI radioactive uptake (combined % IA of stomach, duodenum, jejunum)", "setting": "[2]; 1 h p.i.", "result": "significantly higher"}, {"measurement": "upper GI radioactive uptake (combined % IA of stomach, duodenum, jejunum)", "setting": "[2]; 4 h p.i.", "result": "No difference"}]}, {"smiles": "N=C(N)NC(=O)c1nc(Cl)c(N)nc1N", "note": "[Amiloride]", "values": [{"measurement": "effect on 223Ra transport through monolayers", "setting": "[1]", "result": "inhibitor"}, {"measurement": "upper GI radioactive uptake (combined % IA of stomach, duodenum, jejunum)", "setting": "[2]; 15 min p.i.", "result": "lower radioactive content"}, {"measurement": "upper GI radioactive uptake (combined % IA of stomach, duodenum, jejunum)", "setting": "[2]; 4 h p.i.", "result": "No difference"}, {"measurement": "223Ra sequestration in bone, times higher versus control or NS-1619", "setting": "[2]; 4 h p.i., modulator i.p. 1 h before 223RaCl2", "result": "over 1.5 times"}, {"measurement": "area under the curve of bone uptake versus 223RaCl2 alone", "setting": "[2]; combination with 223RaCl2, FIG. 17", "result": "significantly larger"}, {"measurement": "increase in 223Ra bone-homing (whole legs gamma-counted) versus Radium-223 alone", "setting": "[3]; combination treatment, 20 days following treatment, P=0.0283", "result": 15, "unit": "%"}, {"measurement": "blood chemistry profile, Radium versus Radium/Amiloride cohorts", "setting": "[3]; day 1 to day 19 post-treatment", "result": "no profile difference"}]}, {"smiles": "[Cl][223Ra][Cl]", "note": "[^223RaCl2, Radium-223 Dichloride]", "values": [{"measurement": "223Ra transport, differentiated versus undifferentiated enteroids", "setting": "[4]; basolateral to lumen compartment, P<0.05", "result": "superior capacity to transport"}, {"measurement": "transport of radioactivity, 37° C. versus 4° C.", "setting": "[4]; undifferentiated enteroids, basolateral to apical", "result": "temperature-dependent active transport"}, {"measurement": "activity in early protein fractions (5-15 mL), affinity with proteins", "setting": "human serum proteins", "result": "no registered activity in the early fractions"}, {"measurement": "bone uptake", "setting": "24 h p.i., macropa study", "result": "22±1", "unit": "% IA/g"}, {"measurement": "splenic uptake", "setting": "24 h p.i., macropa-β-alanine study", "result": "5.52+/−2.3 % IA/g"}, {"measurement": "bone uptake", "setting": "24 h p.i., macropa-β-alanine study, naive skeletally mature mice", "result": "9.7±1.66", "unit": "% IA/g"}, {"measurement": "small bowel and stomach accumulation", "setting": "[5]", "result": "observed within minutes"}, {"measurement": "apoptosis and DNA damage in cells of the colon and duodenum", "setting": "colon and duodenum", "result": "increased cell apoptosis and DNA damage"}, {"measurement": "median survival", "setting": "[6]", "result": 14.9, "unit": "months"}]}, {"smiles": "C/C=C(/C)C(=O)O[C@H]1C(C)=C2[C@H]([C@@H]1OC(=O)CCCCCCC)[C@@](C)(OC(C)=O)C[C@H](OC(=O)CCC)[C@@]1(O)[C@H]2OC(=O)[C@@]1(C)O", "note": "[thapsigargin]", "values": [{"measurement": "effect on 223Ra transport through monolayers", "setting": "[1]", "result": "does not increase transport"}]}, {"smiles": "O=C([O-])c1cccc(CN2CCOCCOCCN(Cc3cccc(C(=O)[O-])n3)CCOCCOCC2)n1.[223Ra+2]", "note": "[[(^223Ra)macropa]]", "values": [{"measurement": "activity in early protein fractions (5-15 mL), affinity with proteins", "setting": "human serum proteins", "result": "no registered activity in the early fractions"}, {"measurement": "223Ra retained (chelated activity) after serum protein challenge", "setting": "human serum proteins; [8]", "result": "> 90", "unit": "%"}, {"measurement": "decomplexation after serum protein challenge", "setting": "human serum proteins; [8]", "result": 10, "unit": "%"}, {"measurement": "fold lower bone uptake than free 223Ra", "setting": "15 min and 24 h p.i., FIG. 4C legend", "result": "10-25 fold"}, {"measurement": "fold lower bone uptake compared to 223RaCl2 in citrate", "setting": "15 min p.i.", "result": 10, "unit": "fold"}, {"measurement": "fold lower bone uptake compared to 223RaCl2 in citrate", "setting": "24 h p.i.", "result": 20, "unit": "fold"}, {"measurement": "bone uptake", "setting": "24 h p.i., macropa study", "result": "1.6±0.2", "unit": "% IA/g"}, {"measurement": "excretion route", "setting": "animal models, compared to bare ion (Xofigo)", "result": "quantitatively excreted via renal filtration"}, {"measurement": "accumulation in the spleen and the gut", "setting": "compared with 223RaCl2", "result": "prevented accumulation"}, {"measurement": "fold higher signal in equal volume of urine (bladder) than 223RaCl2 group", "setting": "early time point (15 min)", "result": 300, "unit": "fold"}, {"measurement": "complex status in urine after excretion (SEC)", "setting": "urine samples of chelator-administered group", "result": "intact"}]}, {"smiles": "O=C([O-])c1cccc(CN2CCOCCOCCN(Cc3cccc(C(=O)[O-])n3)CCOCCOCC2)n1.[Ba+2]", "note": "[[(Ba)macropa]]", "values": [{"measurement": "stability constant (log K′ML,pH7.4)", "setting": "[7]", "result": 10.74}]}]}
